According to PMC5784128, “Glucansucrase (mutant) enzymes from Lactobacillus reuteri 180 efficiently transglucosylate Stevia component rebaudioside A, resulting in a superior taste” (Scientific Reports, 2018):

Target: T1, Gtf180-ΔN (Limosilactobacillus reuteri, UniProt Q5SBN3, Q1140E)
T1 construct: N-terminally truncated fragment (first 741 residues removed), 117 kDa; start 742 derived from the printed truncation
Assay: HPLC time course of transglucosylation
Assay type: biochemical
Settings: acceptor substrate; 84 mM RebA, 282 mM sucrose donor, 5 U/mL enzyme, 1 mM CaCl2, pH 4.7, 37 °C

T1 sequence (Q5SBN3 entry or part of it Q1140E): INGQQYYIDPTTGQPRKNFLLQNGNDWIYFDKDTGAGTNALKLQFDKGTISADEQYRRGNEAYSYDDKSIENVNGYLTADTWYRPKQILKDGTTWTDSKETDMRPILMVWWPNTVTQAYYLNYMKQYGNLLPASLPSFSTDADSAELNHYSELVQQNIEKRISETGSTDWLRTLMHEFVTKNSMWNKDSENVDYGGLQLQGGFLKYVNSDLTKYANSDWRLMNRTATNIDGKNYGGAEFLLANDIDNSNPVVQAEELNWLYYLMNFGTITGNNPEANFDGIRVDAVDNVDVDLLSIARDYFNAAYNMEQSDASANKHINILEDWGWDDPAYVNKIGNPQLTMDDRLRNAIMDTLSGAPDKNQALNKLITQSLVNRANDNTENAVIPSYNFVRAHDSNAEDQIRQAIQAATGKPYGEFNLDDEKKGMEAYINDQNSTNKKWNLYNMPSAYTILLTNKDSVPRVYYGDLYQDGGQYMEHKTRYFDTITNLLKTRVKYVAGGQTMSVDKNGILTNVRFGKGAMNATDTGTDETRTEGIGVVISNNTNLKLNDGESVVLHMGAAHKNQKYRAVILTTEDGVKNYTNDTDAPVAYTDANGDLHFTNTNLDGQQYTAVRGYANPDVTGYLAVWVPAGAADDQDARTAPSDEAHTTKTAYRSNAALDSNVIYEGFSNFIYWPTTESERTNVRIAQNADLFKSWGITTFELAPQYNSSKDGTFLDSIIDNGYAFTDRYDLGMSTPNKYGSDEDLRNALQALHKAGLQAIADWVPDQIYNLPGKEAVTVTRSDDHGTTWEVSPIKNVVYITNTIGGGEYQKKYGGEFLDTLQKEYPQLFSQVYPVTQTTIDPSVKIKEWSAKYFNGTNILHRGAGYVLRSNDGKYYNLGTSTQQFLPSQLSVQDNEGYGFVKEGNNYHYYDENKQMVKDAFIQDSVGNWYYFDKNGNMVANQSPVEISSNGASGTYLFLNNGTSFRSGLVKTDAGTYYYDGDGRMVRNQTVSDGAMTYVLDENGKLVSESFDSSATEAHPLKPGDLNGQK

SMILES: C=C1C[C@@]23CC[C@H]4[C@@](C)(CCC[C@@]4(C)C(=O)O[C@@H]4O[C@H](CO)[C@@H](O)[C@H](O)[C@H]4O)[C@@H]2CC[C@]1(O[C@@H]1O[C@H](CO)[C@@H](O)[C@H](O[C@@H]2O[C@H](CO)[C@@H](O)[C@H](O)[C@H]2O)[C@H]1O[C@@H]1O[C@H](CO)[C@@H](O)[C@H](O)[C@H]1O)C3 [rebaudioside A]
- HPLC time course of transglucosylation: the Q1140E-mutant not only converted more RebA into RebA-G than wild-type Gtf180-ΔN
